# Measured values taken from US10414759B2, “Phenylthiazoles and uses thereof” (Purdue Research Foundation, priority 2017, dated 2019).
# What was measured:
# NRS384 (MRSA USA300) = assay: MIC/MBC clinical isolate panel (Table 3); assay type: cell-based, S. aureus; conditions: Staphylococcus aureus, Table 3, NRS384 (MRSA USA300)
# Outline: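 Broth dilution in cation-adjusted Mueller-Hinton broth with an inoculum of about 5×10^5 CFU/mL (from a 0.5 McFarland suspension), using triplicate serial dilutions. MIC was the lowest concentration with no visible growth by visual inspection, reported as the mean of triplicates.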
# [1] = tested on: human keratinocytes (HaCaT); assay: In vitro cytotoxicity against HaCaT (MTS); assay type: cell-based; conditions: 2 h incubation
# Procedure: Compound 17 was assayed at concentrations of 8, 16, 32, 64, 128, and 256 μg/mL against an immortal keratinocyte cell line (HaCaT) in order to determine the potential toxic effect against mammalian cells in vitro. Cells were cultured in Dulbeco's modified Eagle's medium (Sigma-Aldrich, St. Louis, Mo., USA) with 10% fetal bovine serum (USA Scientific, Inc.) at 37° C. with 5% CO2. Controls received DMSO alone at a concentration equal to that in drug-treated cell samples. The cells were incubated with the compounds in a 96-well plate at 37° C. and 5.0% CO2 for 2 h prior to addition of the assay reagent MTS 3-(4,5-dimethylthiazol-2-yl)-5-(3-carboxymethoxyphenyl)-2-(4-sulfophenyl)-2H-tetrazolium) (Promega, Madison, Wis., USA). Corrected absorbance readings (actual absorbance readings for each treatment […]) were taken using a kinetic ELISA microplate reader (Molecular Devices, Sunnyvale, Calif., USA). The quantity of viable cells after treatment with each compound is expressed as a percentage of the control, DMSO.
# MRSA (USA300) = assay: Time-kill assay; assay type: cell-based, Staphylococcus aureus; conditions: MRSA US300, 3.0×MIC
# Procedure: Aliquots (100 μL) were taken from each sample after 2, 4, 6, 8, 10, 12, and 24 hours, serially diluted in phosphate-buffered saline, and transferred to Trypticase soy agar (TSA) (Becton, Dickinson and Company, Sparks, Md., USA) plates. Plates were incubated at 37° C. for at least 16 hours before counting viable CFU/mL to determine the time required to reduce the bacterial cell count by 3-log10.
# Caco-2 cells = assay: Caco-2 bidirectional permeability assay
smiles,measurement,setting,value
"CCCCc1ccc(-c2nc(C)c(-c3ccnc(NN)n3)s2)cc1 [Compound 17, 2-(4-Butylphenyl)-5-(2-hydrazinopyrimidin-4-yl)-4-methylthiazole]",MBC,NRS384 (MRSA USA300),2 µg/mL
same,MIC,NRS384 (MRSA USA300); read-out: MIC,2 µg/mL
same,nontoxic up to a concentration of,[1],64 µg/mL
same,time required to reduce the MRSA inoculum to zero colony forming units,MRSA (USA300),≤ 2 h
same,Mean A→B Papp,"Caco-2 cells; Caco-2, apical to basolateral",1.6 ×10⁻⁶ cm/s
same,Mean B→A Papp,"Caco-2 cells; Caco-2, basolateral to apical",2.8 ×10⁻⁶ cm/s
same,Efflux ratio,Caco-2 cells; Papp (B→A)/Papp (A→B),1.8
